# Active and inactive are the calls of the source. The rule behind the calls is not given here.
# Tested on: CCRIS mutagenicity, Ames/micronucleus/aberration tests
# Assay: CCRIS mutagenicity studies
# [1] = Test System: AMES SALMONELLA TYPHIMURIUM, Strain/Indicator: TA98, Metabolic Activation: NONE, Method: PREINCUBATION
# [2] = Test System: AMES SALMONELLA TYPHIMURIUM, Strain/Indicator: TA98, Metabolic Activation: RAT, LIVER, S-9, AROCLOR 1254, Method: PREINCUBATION
# [3] = Test System: AMES SALMONELLA TYPHIMURIUM, Strain/Indicator: TA100, Metabolic Activation: NONE, Method: PREINCUBATION
# [4] = Test System: AMES SALMONELLA TYPHIMURIUM, Strain/Indicator: TA100, Metabolic Activation: RAT, LIVER, S-9, AROCLOR 1254, Method: PREINCUBATION
# [5] = Test System: AMES SALMONELLA TYPHIMURIUM, Strain/Indicator: TA1535, Metabolic Activation: NONE, Method: PREINCUBATION
# [6] = Test System: AMES SALMONELLA TYPHIMURIUM, Strain/Indicator: TA102, Metabolic Activation: NONE, Method: PREINCUBATION
# [7] = Test System: AMES SALMONELLA TYPHIMURIUM, Strain/Indicator: TA98, Metabolic Activation: NONE, Method: STANDARD PLATE
# [8] = Test System: AMES SALMONELLA TYPHIMURIUM, Strain/Indicator: TA100, Metabolic Activation: NONE, Method: STANDARD PLATE
structure (smiles),measurement,setting,value
O=[N+]([O-])c1ccc(Nc2ccc(Nc3ccccc3)c(S(=O)(=O)O)c2)c([N+](=O)[O-])c1,mutagenic call,"Test System: AMES SALMONELLA TYPHIMURIUM, Strain/Indicator: TA97, Metabolic Activation: HAMSTER, LIVER, S-9, AROCLOR 1254, Method: PREINCUBATION",active; positive
same,mutagenic call,"Test System: AMES SALMONELLA TYPHIMURIUM, Strain/Indicator: TA97, Metabolic Activation: NONE, Method: PREINCUBATION",active; positive
same,mutagenic call,"Test System: AMES SALMONELLA TYPHIMURIUM, Strain/Indicator: TA97, Metabolic Activation: RAT, LIVER, S-9, AROCLOR 1254, Method: PREINCUBATION",active; positive
same,mutagenic call,"Test System: AMES SALMONELLA TYPHIMURIUM, Strain/Indicator: TA98, Metabolic Activation: HAMSTER, LIVER, S-9, AROCLOR 1254, Method: PREINCUBATION",active; positive
same,mutagenic call,[1],active; positive
same,mutagenic call,[2],active; positive
same,mutagenic call,"Test System: AMES SALMONELLA TYPHIMURIUM, Strain/Indicator: TA100, Metabolic Activation: HAMSTER, LIVER, S-9, AROCLOR 1254, Method: PREINCUBATION",active; positive
same,mutagenic call,[3],active; positive
same,mutagenic call,[4],active; positive
same,mutagenic call,"Test System: AMES SALMONELLA TYPHIMURIUM, Strain/Indicator: TA1535, Metabolic Activation: HAMSTER, LIVER, S-9, AROCLOR 1254, Method: PREINCUBATION",inactive; negative
same,mutagenic call,[5],inactive; negative
same,mutagenic call,"Test System: AMES SALMONELLA TYPHIMURIUM, Strain/Indicator: TA1535, Metabolic Activation: RAT, LIVER, S-9, AROCLOR 1254, Method: PREINCUBATION",inactive; negative
Cc1cnccn1,mutagenic call,[1],inactive; negative
same,mutagenic call,[2],inactive; negative
same,mutagenic call,[3],inactive; negative
same,mutagenic call,[4],inactive; negative
same,mutagenic call,[6],inactive; negative
same,mutagenic call,"Test System: AMES SALMONELLA TYPHIMURIUM, Strain/Indicator: TA102, Metabolic Activation: RAT, LIVER, S-9, AROCLOR 1254, Method: PREINCUBATION",inactive; negative
Nc1c2ccccc2cc2ccccc12,mutagenic call,"Test System: AMES SALMONELLA TYPHIMURIUM, Strain/Indicator: TA98, Metabolic Activation: RAT, LIVER, S-9, AROCLOR 1254 (2%), Method: STANDARD PLATE",active; positive
same,mutagenic call,"Test System: AMES SALMONELLA TYPHIMURIUM, Strain/Indicator: TA98, Metabolic Activation: RAT, LIVER, S-9, AROCLOR 1254 (4%), Method: STANDARD PLATE",active; positive
same,mutagenic call,"Test System: AMES SALMONELLA TYPHIMURIUM, Strain/Indicator: TA100, Metabolic Activation: RAT, LIVER, S-9, AROCLOR 1254 (2%), Method: STANDARD PLATE",active; positive
same,mutagenic call,"Test System: AMES SALMONELLA TYPHIMURIUM, Strain/Indicator: TA1535, Metabolic Activation: RAT, LIVER, S-9, AROCLOR 1254 (2%), Method: STANDARD PLATE",inactive; negative
same,mutagenic call,"Test System: AMES SALMONELLA TYPHIMURIUM, Strain/Indicator: TA1537, Metabolic Activation: RAT, LIVER, S-9, AROCLOR 1254 (2%), Method: STANDARD PLATE",active; positive
O=C(CBr)c1oc([N+](=O)[O-])c(Cl)c1Cl,mutagenic call,[7],active; positive
same,mutagenic call,"Test System: AMES SALMONELLA TYPHIMURIUM, Strain/Indicator: TA100 (NR), Metabolic Activation: NONE, Method: STANDARD PLATE",active; positive
same,mutagenic call,[8],active; positive
same,mutagenic call,"Test System: AMES SALMONELLA TYPHIMURIUM, Strain/Indicator: TA100, Metabolic Activation: NONE, Method: STANDARD PLATE (ANAEROBIC INCUBATION)",active; positive
O[C@H]1[C@H]2O[C@H]2c2c(ccc3cc4c(ccc5ccccc54)nc23)[C@@H]1O,mutagenic call,[1],active; positive
same,mutagenic call,[3],active; positive
same,mutagenic call,"Test System: CHINESE HAMSTER V-79, Strain/Indicator: V-79/8-AZAGUANINE, Metabolic Activation: NONE",active; positive
CC(C)(C)OCC1CO1 (stereo not drawn),mutagenic call,"Test System: AMES SALMONELLA TYPHIMURIUM, Strain/Indicator: TA100, Metabolic Activation: HAMSTER, LIVER, S-9, AROCLOR 1254 (30%), Method: PREINCUBATION",active; positive
same,mutagenic call,[3],active; positive
same,mutagenic call,"Test System: AMES SALMONELLA TYPHIMURIUM, Strain/Indicator: TA100, Metabolic Activation: RAT, LIVER, S-9, AROCLOR 1254 (30%), Method: PREINCUBATION",active; positive
same,mutagenic call,"Test System: AMES SALMONELLA TYPHIMURIUM, Strain/Indicator: TA1535, Metabolic Activation: HAMSTER, LIVER, S-9, AROCLOR 1254 (30%), Method: PREINCUBATION",active; positive
same,mutagenic call,[5],active; positive
same,mutagenic call,"Test System: AMES SALMONELLA TYPHIMURIUM, Strain/Indicator: TA1535, Metabolic Activation: RAT, LIVER, S-9, AROCLOR 1254 (30%), Method: PREINCUBATION",active; positive
CO[C@@H]1C[C@](C)(O)Cc2cc3c(c(O)c21)C(=O)c1c(O)cc2c(c1C3=O)O[C@@H]1O[C@@]2(C)[C@H](O)[C@@H](N(C)C)[C@@H]1O,mutagenic call,[1],inactive; negative
same,mutagenic call,"Test System: AMES SALMONELLA TYPHIMURIUM, Strain/Indicator: TA98, Metabolic Activation: RAT LIVER S-9, Method: PREINCUBATION",active; positive
same,mutagenic call,[3],inactive; negative
same,mutagenic call,"Test System: AMES SALMONELLA TYPHIMURIUM, Strain/Indicator: TA100, Metabolic Activation: RAT LIVER S-9, Method: PREINCUBATION",active; positive
same,mutagenic call,[5],inactive; negative
same,mutagenic call,"Test System: AMES SALMONELLA TYPHIMURIUM, Strain/Indicator: TA1535, Metabolic Activation: RAT LIVER S-9, Method: PREINCUBATION",inactive; negative
same,mutagenic call,"Test System: AMES SALMONELLA TYPHIMURIUM, Strain/Indicator: TA1537, Metabolic Activation: NONE, Method: PREINCUBATION",inactive; negative
same,mutagenic call,"Test System: AMES SALMONELLA TYPHIMURIUM, Strain/Indicator: TA1537, Metabolic Activation: RAT LIVER S-9, Method: PREINCUBATION",active; positive
same,mutagenic call,"Test System: E.COLI, Strain/Indicator: WP2 UVRA, Metabolic Activation: NONE, Method: PREINCUBATION",inactive; negative
same,mutagenic call,"Test System: E.COLI, Strain/Indicator: WP2 UVRA, Metabolic Activation: RAT LIVER S-9, Method: PREINCUBATION",inactive; negative
O=C([O-])/C=C/C(=O)[O-].[Fe+2],mutagenic call,"Test System: AMES SALMONELLA TYPHIMURIUM, Strain/Indicator: TA98, Metabolic Activation: HAMSTER, LIVER, S-9, AROCLOR 1254, Method: STANDARD PLATE",active; positive
same,mutagenic call,[7],inactive; negative
same,mutagenic call,"Test System: AMES SALMONELLA TYPHIMURIUM, Strain/Indicator: TA98, Metabolic Activation: RAT, LIVER, S-9, AROCLOR 1254, Method: STANDARD PLATE",active; positive
same,mutagenic call,"Test System: AMES SALMONELLA TYPHIMURIUM, Strain/Indicator: TA100, Metabolic Activation: HAMSTER, LIVER, S-9, AROCLOR 1254, Method: STANDARD PLATE",inactive; negative
same,mutagenic call,[8],inactive; negative
same,mutagenic call,"Test System: AMES SALMONELLA TYPHIMURIUM, Strain/Indicator: TA100, Metabolic Activation: RAT, LIVER, S-9, AROCLOR 1254, Method: STANDARD PLATE",inactive; negative
same,mutagenic call,"Test System: AMES SALMONELLA TYPHIMURIUM, Strain/Indicator: TA102, Metabolic Activation: HAMSTER, LIVER, S-9, AROCLOR 1254, Method: STANDARD PLATE",inactive; negative
same,mutagenic call,[6],inactive; negative
same,mutagenic call,"Test System: AMES SALMONELLA TYPHIMURIUM, Strain/Indicator: TA102, Metabolic Activation: NONE, Method: STANDARD PLATE",inactive; negative
same,mutagenic call,"Test System: AMES SALMONELLA TYPHIMURIUM, Strain/Indicator: TA102, Metabolic Activation: RAT, LIVER, S-9, AROCLOR 1254, Method: STANDARD PLATE",inactive; negative
same,mutagenic call,"Test System: MOUSE LYMPHOMA, Strain/Indicator: L5178Y (TK+/TK-), Metabolic Activation: NONE, Method: SUSPENSION/PLATE",active; positive. reevaluation of results: positive
same,mutagenic call,"Test System: MOUSE LYMPHOMA, Strain/Indicator: L5178Y (TK+/TK-), Metabolic Activation: RAT, LIVER, S-9, AROCLOR 1254, Method: SUSPENSION/PLATE",inactive; negative. reevaluation of results: negative

# Source: PubChem BioAssay AID1259407 (Chemical Carcinogenesis Research Information System (CCRIS), 2018)
